Earlier results in article PMC3611965 (Nuclear medicine and biology, 2012).
Where two headings read alike, the source gives them in different places.

Experiments:
FAAH [1] = details: rats; ref [25]; cited from earlier work
FAAH [2] = details: human studies; ref [23]; cited from earlier work
FAAH [3] = details: rhesus monkeys; ref [23]; cited from earlier work

Structure (SMILES)	brain uptake (FAAH [1])	brain uptake (PET) (FAAH [2])	brain uptake (PET) (FAAH [3])
O=[11C](NC1CCCCC1)Oc1ccc(O)c(-c2ccccc2)c1 [[^11 C]-CURB]	good brain uptake		
CN(C)C(=O)[C@H]1C[C@@H]1c1ccc(-c2ncn([11CH3])c2Sc2ccc(Cl)cn2)cc1 [[^11 C]MK-3168]		high brain uptake	Heterogeneous, specific brain uptake
